Laboratory results from US9980928B2, “Hydroxy aliphatic substituted phenyl aminoalkyl ether derivatives” (PROUS INSTITUTE FOR BIOMEDICAL RESEARCH, S.A., priority 2012, dated 2018).

Legend:
[1] = system: mice; assay: Mouse formalin assay (analgesic activity); assay type: in vivo
Protocol: The analgesic activity of the compounds of the present invention is determined making use of the mouse formalin test described in Hunskaar, S. J Neurosci Methods 1985, 14(1): 69-76. The hind paw licking time was measured at 5-minute intervals for 30 minutes following subplantar injection of formalin (0.02 mL, 2%). Statistical analysis using one-way ANOVA followed by Dunnett's test was applied for comparison between the test substance-treated and vehicle control groups. P<0.05 was considered significant.

[2] = system: C57BL6 mice; assay: Maximum tolerated doses, 5 days oral administration; assay type: in vivo; settings: mouse, doses up to 100 mg/kg/day during 5 days
From the text: An alternative evaluation of the toxicity of the compounds of the present invention may be conducted using the method described in Branch, D. R. Exp Toxicol Pathol 2009, 61(2): 133-6 and Emmenegger, U. et al. Neoplasia 2011, 13(1): 40-8. […]

CNCCC(Oc1ccc(CCO)cc1)c1ccccc1.Cl (single isomer, unassigned) [Example 2, 2-[4-[3-(Methylamino)-1-phenylpropoxy]phenyl]ethanol hydrochloride]
analgesic activity following formalin challenge (hind paw licking time) ([1]; 3 mg/kg oral): significant analgesic activity | analgesic activity following formalin challenge (hind paw licking time) ([1]; 30 mg/kg intraperitoneal): significant analgesic activity | analgesic activity following formalin challenge (hind paw licking time) ([1]; 30 mg/kg oral): significant analgesic activity | analgesic activity following formalin challenge (hind paw licking time) ([1]; 90 mg/kg oral): significant analgesic activity | oral toxicity, toxic effect [2]: did not show any toxic effect
